Test results as given in patent US20260130850A1, “TRANSDERMAL DELIVERY FORMULATIONS AND METHODS FOR THE MANUFACTURE THEREOF” (LIFEACTIVE, INC., priority 2023, published 2026).

Columns and labels:
[1] = Acidic dissociation constants (pKa) of strong and weak organic acids; type: physicochemical; conditions: water; in H2O at ~15-20° C.; Table 2 weak organic acids; read-out: Median pKa
[2] = in H2O at ~15-20° C.; Table 2 weak organic acids; cited from earlier work

pKa [1] | Molecule | pKa1 [2] | pKa3 [2]
5.6 | O=c1[nH]c(=O)c2[nH]c(=O)[nH]c2[nH]1 [Uric Acid] | 5.6 | –
– | Citric Acid | – | 6.40
